Measured values reported in PubChem BioAssay AID248 (DTP/NCI, 2004).
“And” between values parts separate entries of the source, which are not always exact repeats. Equal entries are not always repeated. Inconclusive results and toxic doses are left out.

System: L1210 leukemia ip in BDF1 mice, survival T/C
Experiment: NCI In Vivo Anticancer Drug Screen. Data for tumor model L1210 Leukemia (intraperitoneal) in B6D2F1 (BDF1) mice
Details: endpoint: mean survival time, higher = longer survival
How it was run: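 Antitumor effect is assessed in tumor-bearing animals. Survival in the compound arm is compared with a vehicle-dosed control arm and expressed as their quotient.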

[1] = dose: 100.0 mg/kg/injection, schedule: Q04DX003 (ip), vehicle: Klucel (hydroxypropylcellulose) (HPC)
[2] = dose: 200.0 mg/kg/injection, schedule: Q04DX003 (ip), vehicle: Klucel (hydroxypropylcellulose) (HPC)
[3] = dose: 400.0 mg/kg/injection, schedule: Q04DX003 (ip), vehicle: Klucel (hydroxypropylcellulose) (HPC)

With `CC1(C)N=C(N)N=C(N)N1CCc1ccccc1` the T/C (dose: 25.0 mg/kg/injection, schedule: Q01DX001 (ip), vehicle: saline with Tween-80) was 101 % of control and the T/C (dose: 50.0 mg/kg/injection, schedule: Q01DX001 (ip), vehicle: saline with Tween-80) was 104 % of control.

In the case of `O=c1c(Cl)c(C(Cl)(Cl)Cl)[nH]c2c(Cl)cc(Cl)cc12`, the T/C (dose: 6.25 mg/kg/injection, schedule: Q01DX009 (ip), vehicle: other) is reported as 93 % of control and the T/C (dose: 12.5 mg/kg/injection, schedule: Q01DX009 (ip), vehicle: other) is reported as 107 % of control.

For `O=C(OCC1CCCO1)c1ccccc1O` (centres undefined), the T/C [1] was 100 % of control, the T/C [2] was 100 % of control and the T/C [3] was 95 % of control.

In the case of `C1OC1CN1CCC(C2CCN(CC3CO3)CC2)CC1` (centres undefined), the T/C (dose: 0.61 mg/kg/injection, schedule: Q01DX009 (ip), vehicle: saline) is reported as 114 % of control, the T/C (dose: 2.1 mg/kg/injection, schedule: Q01DX009 (ip), vehicle: saline) is reported as 156 % of control and the T/C (dose: 2.9 mg/kg/injection, schedule: Q01DX001 (ip), vehicle: saline) is reported as 121 % of control. The T/C (dose: 3.5 mg/kg/injection, schedule: Q01DX009 (ip), vehicle: saline) was 120 % of control, the T/C (dose: 4.3 mg/kg/injection, schedule: Q01DX001 (ip), vehicle: saline) was 115 % of control and the T/C (dose: 4.4 mg/kg/injection, schedule: Q01DX001 (ip), vehicle: saline) was 159 % of control. The T/C (dose: 6.6 mg/kg/injection, schedule: Q01DX001 (ip), vehicle: saline) was 122 % of control, the T/C (dose: 15.0 mg/kg/injection, schedule: Q01DX001 (ip), vehicle: saline) was 160 % of control and the T/C (dose: 15.0 mg/kg/injection, schedule: Q01DX009 (ip), vehicle: saline) was 150 % of control and 152 % of control. For the same molecule, the T/C (dose: 50.0 mg/kg/injection, schedule: Q01DX001 (ip), vehicle: saline) was 164 % of control, the T/C (dose: 60.0 mg/kg/injection, schedule: Q01DX001 (ip), vehicle: saline) was 156 % of control and the T/C (dose: 60.0 mg/kg/injection, schedule: Q01DX009 (ip), vehicle: saline) was 91 % of control.

With `O=C(c1ccccc1Br)C(Br)C(Br)c1ccccc1` (centres undefined) the T/C (dose: 100.0 mg/kg/injection, schedule: Q01DX009 (ip), vehicle: saline with Tween-80) was 98 % of control, the T/C (dose: 200.0 mg/kg/injection, schedule: Q01DX009 (ip), vehicle: saline with Tween-80) was 93 % of control and the T/C (dose: 400.0 mg/kg/injection, schedule: Q01DX009 (ip), vehicle: saline with Tween-80) was 91 % of control.

With `CC(O)C#N` (centres undefined) the T/C (dose: 0.63 mg/kg/injection, schedule: Q04DX003 (ip), vehicle: saline) was 102 % of control, the T/C (dose: 1.25 mg/kg/injection, schedule: Q04DX003 (ip), vehicle: saline) was 115 % of control and the T/C (dose: 2.5 mg/kg/injection, schedule: Q04DX003 (ip), vehicle: saline) was 115 % of control. The T/C (dose: 5.0 mg/kg/injection, schedule: Q04DX003 (ip), vehicle: saline) was 103 % of control.

For `O=[N+]([O-])CC(O)C(F)(F)C(F)(F)C(F)(F)F` (centres undefined), the T/C [1] was 105 % of control, the T/C [2] was 100 % of control and the T/C [3] was 100 % of control.

For `O=[N+]([O-])c1cc2ccccc2o1`, the T/C (dose: 50.0 mg/kg/injection, schedule: Q04DX002 (ip), vehicle: Klucel (hydroxypropylcellulose) (HPC)) was 88 % of control, the T/C (dose: 100.0 mg/kg/injection, schedule: Q04DX002 (ip), vehicle: Klucel (hydroxypropylcellulose) (HPC)) was 97 % of control and the T/C (dose: 200.0 mg/kg/injection, schedule: Q04DX002 (ip), vehicle: Klucel (hydroxypropylcellulose) (HPC)) was 93 % of control.

`CC1(C)C2CCC1(C)C(OCCC#N)C2` (centres undefined) was tested, and the T/C (dose: 100.0 mg/kg/injection, schedule: Q04DX002 (ip), vehicle: saline) was 93 % of control, the T/C (dose: 200.0 mg/kg/injection, schedule: Q04DX002 (ip), vehicle: saline) was 107 % of control and the T/C (dose: 400.0 mg/kg/injection, schedule: Q04DX002 (ip), vehicle: saline) was 104 % of control.

`O=C(Nc1ccc(O)cc1)Nc1ccc(O)cc1` was tested, and the T/C (dose: 37.5 mg/kg/injection, schedule: Q01DX Z (ip), vehicle: carboxymethylcellulose (CMC)) was 103 % of control, the T/C (dose: 53.0 mg/kg/injection, schedule: Q01DX Z (ip), vehicle: carboxymethylcellulose (CMC)) was 92 % of control and the T/C (dose: 53.0 mg/kg/injection, schedule: Q01DX Z (ip), vehicle: other) was 105 % of control. The T/C (dose: 75.0 mg/kg/injection, schedule: Q01DX Z (ip), vehicle: carboxymethylcellulose (CMC)) was 115 % of control, the T/C (dose: 80.0 mg/kg/injection, schedule: Q01DX Z (ip), vehicle: carboxymethylcellulose (CMC)) was 93 % of control and the T/C (dose: 80.0 mg/kg/injection, schedule: Q01DX Z (ip), vehicle: other) was 102 % of control. For the same molecule, the T/C (dose: 120.0 mg/kg/injection, schedule: Q01DX Z (ip), vehicle: carboxymethylcellulose (CMC)) was 92 % of control, the T/C (dose: 120.0 mg/kg/injection, schedule: Q01DX Z (ip), vehicle: other) was 103 % of control and the T/C (dose: 150.0 mg/kg/injection, schedule: Q01DX Z (ip), vehicle: carboxymethylcellulose (CMC)) was 103 % of control. For the same molecule, the T/C (dose: 180.0 mg/kg/injection, schedule: Q01DX Z (ip), vehicle: carboxymethylcellulose (CMC)) was 89 % of control, the T/C (dose: 180.0 mg/kg/injection, schedule: Q01DX Z (ip), vehicle: other) was 102 % of control and the T/C (dose: 270.0 mg/kg/injection, schedule: Q01DX Z (ip), vehicle: other) was 103 % of control. For the same molecule, the T/C (dose: 300.0 mg/kg/injection, schedule: Q01DX Z (ip), vehicle: carboxymethylcellulose (CMC)) was 98 % of control and the T/C (dose: 404.0 mg/kg/injection, schedule: Q01DX Z (ip), vehicle: other) was 105 % of control.
